Like-named read-outs stand apart in the source and are kept apart here.
Tests used:
[1] = target: T1, human CYP11B1 (Homo sapiens, UniProt P15538); test: G-402 cell enzyme experiment, CYP11B1 (cortisol product, HTRF), selectivity versus CYP11B2; assay type: cell-based; conditions: human selective factor: ratio of CYP11B1 EC50 to CYP11B2 EC50; G-402 cells
T1 construct: The main elements of an expression plasmid include ORF of human CYP11B1 or human CYP11B2; expressed in transfected cells
T1 sequence (P15538 25-503): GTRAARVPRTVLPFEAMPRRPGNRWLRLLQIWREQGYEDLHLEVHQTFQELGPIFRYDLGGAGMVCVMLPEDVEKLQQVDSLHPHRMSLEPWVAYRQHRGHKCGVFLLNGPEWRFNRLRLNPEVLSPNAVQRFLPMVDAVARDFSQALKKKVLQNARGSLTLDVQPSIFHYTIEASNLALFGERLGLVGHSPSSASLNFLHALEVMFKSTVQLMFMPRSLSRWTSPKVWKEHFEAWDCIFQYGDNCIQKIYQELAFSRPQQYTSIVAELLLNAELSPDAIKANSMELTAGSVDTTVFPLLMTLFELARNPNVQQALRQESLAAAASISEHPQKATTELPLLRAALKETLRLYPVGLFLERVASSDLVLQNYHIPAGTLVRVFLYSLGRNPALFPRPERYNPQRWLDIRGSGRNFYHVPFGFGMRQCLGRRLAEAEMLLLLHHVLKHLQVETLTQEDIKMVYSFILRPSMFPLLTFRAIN
Description: (§1) G-402 cell line was used as host cells to express (by transient or stable transfection) an enzyme of the human CYP11 family. Specifically, G-402 cell lines stably expressing human CYP11B1 and human CYP11B2 were established respectively. […] Therefore, the G-402 cell line is very suitable as a host cell for the ectopic expression of an enzyme of the CYP11 family.
(§2) The G-402 cell line, originally derived from renal myoblastoma, can be obtained from ATCC (CRL-1440). The main elements of an expression plasmid include ORF of human CYP11B1 or human CYP11B2, a suitable promoter (CMV promoter), and a suitable resistance marker (neomycin). The expression plasmid was transfected into G-402 cells by standard technology, and a specific antibiotic was then given for screening. The activity of the enzyme expressed by the screened monoclonal cells was assessed by 11-deoxycorticosterone (substrate of CYP11B2) and 11-deoxycortisol (substrate of CYP11B1).
(§3) The G-402 cells expressing CYP11 plasmid, as established in the above solution, were cultured in McCoy's 5a Modified Medium (ATCC Catalog No. 30-2007) containing 10% FCS and 400 µg/ml G418 in an incubator at 37°C and 5% CO2. A cell enzyme experiment was carried out using DMEM/F12 medium containing 2.5% charcoal-treated FBS and an appropriate concentration of a substrate (1 µM 11-deoxycorticosterone or 1 µM 11-deoxycortisol). In order to detect the activity of the enzyme in the cells, the cells were plated in a 96-well plate and incubated for 16 h. The supernatant was then transferred and analyzed for the concentration of the expected product (the product of CYP11B2: aldosterone; the product of CYP11B1: cortisol). The concentrations of these products were determined by an HTRF experiment of CisBio.
(§4) In the cell enzyme experiment, the inhibitory effect of the test compound on the generated product can reflect the inhibitory effect thereof on the enzyme. The dose-dependent inhibition of the enzyme activity by the compound was calculated by plotting the concentration of the test compound (x axis) versus the measured product level (y axis). Then, the original data was fitted to a 4-parameter sigmoidal function (Morgan-Mercer-Flodin, MMF model) by least square method: y = (AB + Cx^D) / (B + x^D) in which A is the maximum y value, B is the EC50 determined by XLFit, C is the minimum y value, and D is the slope value. The maximum value A corresponds to the amount of the product detected without an inhibitor, and C corresponds to the amount of the product detected in the G402 cells expressing an empty plasmid.
(§5) The EC50 value of the compound of the present invention was determined by the above G-402 experiment system. The activity of the CYP11B2 enzyme was determined under the conditions of 1 µM 11-deoxycorticosterone and a variable amount of the inhibitor, and the activity of the CYP11B1 enzyme was determined under the conditions of 1 µM 11-deoxycortisol and a variable amount of the inhibitor.

[2] = target: T2, human CYP11B2 (Homo sapiens, UniProt P19099); test: G-402 cell enzyme experiment, CYP11B2 (aldosterone product, HTRF); assay type: cell-based; conditions: G-402 cells stably expressing human CYP11B2, 1 µM 11-deoxycorticosterone, 16 h
T2 construct: The main elements of an expression plasmid include ORF of human CYP11B1 or human CYP11B2; expressed in transfected cells
T2 sequence (P19099 25-503): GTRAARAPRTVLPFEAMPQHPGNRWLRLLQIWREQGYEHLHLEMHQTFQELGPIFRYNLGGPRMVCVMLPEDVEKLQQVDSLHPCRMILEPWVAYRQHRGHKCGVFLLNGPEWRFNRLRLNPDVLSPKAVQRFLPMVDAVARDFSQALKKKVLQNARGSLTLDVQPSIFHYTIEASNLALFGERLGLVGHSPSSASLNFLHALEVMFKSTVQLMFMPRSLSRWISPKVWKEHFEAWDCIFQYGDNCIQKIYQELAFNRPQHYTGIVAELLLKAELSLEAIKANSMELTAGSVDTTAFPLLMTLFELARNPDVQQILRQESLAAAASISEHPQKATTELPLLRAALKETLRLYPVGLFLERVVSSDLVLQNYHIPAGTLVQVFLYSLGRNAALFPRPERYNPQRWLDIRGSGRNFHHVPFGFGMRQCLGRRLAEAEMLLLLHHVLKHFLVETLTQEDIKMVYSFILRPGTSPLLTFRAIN
Description: as §1, §2, §3, §4, §5

[3] = Pharmacokinetic determination in rats; assay type: in vivo; conditions: rat, male SD rats, plasma, oral administration (PO) 5 mg/kg; for MRT inf: read-out: MRT0-∞
Experimental: SD rats were used as test animals to study the pharmacokinetic behavior of the compounds of the present invention in rats (plasma) after oral administration.
3 SD rats per group, male.
Formulation of drug for oral administration: 0.5% CMC-Na (1% Tween 80)
5 g of sodium carboxymethyl cellulose (CMC-Na, viscosity: 800-1200 Cps) was weighed and dissolved in 1000 mL of purified water, and 10 g of Tween 80 was added. These materials were uniformly mixed to form a clear solution.
The example compounds were weighed and dissolved in the solution and the mixture was shaken well and ultrasonicated for 15 min to obtain a colorless clear solution with a concentration of 0.5 mg/mL. Formulation of drug for intravenous administration: 5% DMSO + 10% Solutol HS15 + 85% PBS
After overnight fasting, 3 male SD rats per group were administered orally (PO) at a dose of 5 mg/kg with an administration volume of 10 mL/kg. […]
0.2 mL of blood was collected from the jugular vein of the experimental animals before administration and at 0.25 h, 0.5 h, 1.0 h, 2.0 h, 4.0 h, 6.0 h, 8.0 h, and 24.0 h after administration and placed in an EDTA-2K test tube, and the test tube was centrifuged at 8000 rpm for 6 min at 4°C to separate the plasma, which was stored at -80°C; and the animals were fed 4 h after administration.
3 Experimental results: The final determination results were obtained by using LCMS/MS method.

With CC(=O)N[C@@H]1CCCc2c(-c3cnc4c(c3)CCC(=O)N4C)cncc21 [Example 59, (R)-N-(4-(8-methyl-7-carbonyl-5,6,7,8-tetrahydro-1,8-diazanaphthalen-3-yl)-5,6,7,8-tetrahydroisoquinolin-8-yl)acetamide] the hsF [1] was > 388x.
With COc1ccc2cc(-c3cncc4c3CCCC4NC(C)=O)ccc2n1 (stereo not shown) [Example 24-A] the EC50 [2] was 16 nM.
Compound CN(c1cncc(-c2ccc3c(ccc(=O)n3C)c2)c1)C1CN(C(=O)c2cnn(C)c2)C1 [Example 74, 1-methyl-6-(5-(methyl(1-(1-methyl-1H-pyrazole-4-carbonyl)azetidin-3-yl)amino)pyridin-3-yl)quinolin-2(1)-one] has a hsF [1] of 371x.
With CN(c1cncc(-c2ccc3c(c2)sc(=O)n3C)c1)C1CN(C(=O)c2cnn(C)c2)C1 [Example 89, 3-methyl-6-(5-(methyl(1-(1-methyl-1H-pyrazole-4-carbonyl)azetidin-3-yl)amino)pyridin-3-yl)benzo[d]thiazol-2(3H)-one] the EC50 [2] was 9 nM.
With CCC(=O)N[C@H]1c2cncc(-c3ccc4c(c3)sc(=O)n4C)c2C2CC21 (stereo partly drawn) [Example 66-P2, N-((6R)-4-(3-methyl-2-oxo-2,3-dihydrobenzo[d]thiazol-6-yl)-4b,5,5a,6-tetrahydrocyclopropyl[3,4]cyclopenta[1,2-c]pyridin-6-yl)propanamide] the hsF [1] was > 1471x.
CN1C(=O)OCc2cc(-c3cncc(C4=CCN(S(=O)(=O)C5CC5)CC4)c3)ccc21 [Example 41, 6-(1'-(cyclopropylsulfonyl)-1',2',3',6'-tetrahydro-[3,4'-bipyridine]-5-yl)-1-methyl-1,4-dihydro-2H-benzo[d][1,3]oxazin-2-one] gave a hsF [1] of 394x.
With Cn1cc(C(=O)N2CC3(C2)CN(c2cncc(-c4ccc5c(c4)sc(=O)n5C)c2)C3)cn1 [Example 67, 3-methyl-6-(5-(6-(1-methyl-1H-pyrazole-4-carbonyl)-2,6-diazaspiro[3.3]heptan-2-yl)pyridin-3-yl)benzo[d]thiazol-2(3H)-one] the hsF [1] was > 485x, the AUC(0-inf) [3] was 31400 ng·h/mL and the AUC(0-t) [3] was 31400 ng·h/mL. It also gave a Cmax [3] of 4910 ng/mL, a Tmax [3] of 4 h and a half-life [3] of 2 h. It also gave an MRT inf [3] of 3.9 h.
With CN1C(=O)C2CC2c2cc(-c3cncc(N4CC5(CN(C(=O)c6cnn(C)c6)C5)C4)c3)ccc21 (stereo not shown) [Example 75, 3-methyl-6-(5-(6-(1-methyl-1H-pyrazole-4-carbonyl)-2,6-diazaspiro[3.3]heptan-2-yl)pyridin-3-yl)-1,1a,3,7b-tetrahydro-2H-cyclopropa[c]quinolin-2-one] the hsF [1] was > 16666x.
With CCC(=O)N[C@@H]1CCCc2c(-c3ccc4c(c3)COC(=O)N4C)cncc21 [Example 1-A] the hsF [1] was 144x, the AUC(0-inf) [3] was 27700 ng·h/mL and the AUC(0-t) [3] was 27600 ng·h/mL. For the same compound, the Cmax [3] was 6330 ng/mL, the Tmax [3] was 1 h and the half-life [3] was 2.6 h. The MRT inf [3] was 3.7 h.
For “6-(5-(2-ethoxyquinolin-6-yl)pyridin-3-yl)-2,6-diazaspiro[3.3]heptan-2-yl)(1-(methyl-d3)-1H-pyrazol-4-yl)methanone [Example 42]”, the hsF [1] was 393x.
Cn1cc(C(=O)N2CC3(C2)CN(c2cncc(-c4ccc5c(ccc(=O)n5C)c4)c2)C3)cn1 [Example 69, 1-methyl-6-(5-(6-(1-methyl-1H-pyrazole-4-carbonyl)-2,6-diazaspiro[3.3]heptan-2-yl)pyridin-3-yl)quinolin-2(1H)-one] showed a hsF [1] of 585x.
With Cn1c(=O)sc2cc(-c3cncc(N4CC5(CN(C(=O)C6(C#N)CC6)C5)C4)n3)ccc21 [Example 106, 1-(6-(6-(3-methyl-2-carbonyl-2,3-dihydrobenzo[d]thiazol-6-yl)pyrazin-2-yl)-2,6-diazaspiro[3.3]heptane-2-carbonyl)cyclopropane-1-carbonitrile] the hsF [1] was 3103x.
Cn1c(=O)sc2cc(-c3cncc(N4CC5(CN(C(=O)C6(C#N)CC6)C5)C4)c3)ccc21 [Example 105, 1-(6-(5-(3-methyl-2-carbonyl-2,3-dihydrobenzo[d]thiazol-6-yl)pyridin-3-yl)-2,6-diazaspiro[3.3]heptane-2-carbonyl)cyclopropane-1-carbonitrile] showed a hsF [1] of 1372x, an AUC(0-inf) ([3]; in vivo) of 66500 ng·h/mL and an AUC(0-t) ([3]; in vivo) of 60400 ng·h/mL. It also gave a Cmax ([3]; in vivo) of 6040 ng/mL, a Tmax ([3]; in vivo) of 4 h and a half-life ([3]; in vivo) of 7 h. It also gave an MRT inf ([3]; in vivo) of 9.6 h.
Work on Cn1cc(C(=O)N2CC(Oc3cncc(-c4ccc5c(ccc(=O)n5C)c4)c3)C2)cn1 [Example 98, 1-methyl-6-(5-((1-(1-methyl-1H-pyrazole-4-carbonyl)azetidin-3-yl)oxy)pyridin-3-yl)quinolin-2(1H)-one] yielded a hsF [1] of 2014x.
For CN1C(=O)OCc2cc(-c3cncc(N4CC5(CN(C(=O)c6cnn(C)c6)C5)C4)c3)ccc21 [Example 5, 1-Methyl-6-(5-(6-(1-methyl-1H-pyrazole-4-carbonyl)-2,6-diazaspiro[3.3]heptan-2-yl)pyridin-3-yl)-1,4-dihydro-2H-benzo[d][1,3]oxazin-2-one], the hsF [1] was > 1279x.
With Cn1cc(C(=O)N2CC(Oc3cncc(-c4ccc5c(c4)sc(=O)n5C)n3)C2)cn1 [Example 99, 3-methyl-6-(6-((1-(1-methyl-1H-pyrazole-4-carbonyl)azetidin-3-yl)oxy)pyrazin-2-yl)benzo[d]thiazol-2(3H)-one] the hsF [1] was > 3509x.
